# Measured values published in US20250188069A1, “COMPOUNDS AND METHODS FOR DEGRADING CASEIN KINASE 1 ALPHA” (PIN THERAPEUTICS, INC., priority 2022, published 2025).
# Structures can show the parent of a compound that is named as a salt.
# Legend:
# CK1α = CK1α (Homo sapiens, UniProt P48729+Q96SW2); test: CK1α degradation, Western blot in MV-4-11 cells; type: cell-based; parameters: CK1α levels were determined in MV-4-11 cells using Jess (Protein Simple); host or cells: MV-4-11; conditions: % reduction of CK1α compared to DMSO, MV4-11 cells at 1 μM for 4 hours, read-out: CK1α degradation classification
# Protocol: MM.1S and NCCIT cells were obtained from ATCC and grown in RPMI-1640 supplemented with 10% FBS. MV-4-11 cells were obtained from ATCC and grown in IMDM supplemented with 10% FBS. The cells were maintained at 37° C. under 5% CO2.
# Compounds of the present disclosure was added to cells (final DMSO concentration of 0.1%) and incubated for 4 hours. CK1α levels were determined in MV-4-11 cells using Western blot analysis. Whole cell lysates were prepared in lysis buffer (1×RIPA buffer [Thermo, 89900], 2 mM MgCl2 [Sigma, M1028], 0.05% Benzonase [Sigma, E1014], 1× Pierce protease inhibitor tablets EDTA-free [Thermo, A32965]). […] of the lysates were analyzed using Western blot with antibodies against CK1α (Abcam, ab108296) and β-actin (R&D Systems, MAB8929).
# The efficacy of CK1α degradation of other part of compounds of the present disclosure was determined by treating MV4-11 cells at 1 μM (Final DMSO concentration of 0.1%) for 4 hours. Protein levels relative to DMSO are calculated for CK1α. The compounds are classified based on the amount of CK1α degradation (% reduction of CK1α compared to DMSO) as follows. • A: Degradation is greater than or equal to 75%; • B: Degradation is less than 75% & greater than or equal to 50%; • C: Degradation is less than […]; • ND: not determined.
# MV-4-11 cells = test: AML cell viability assay (RealTime-Glo); type: cell-based; conditions: Homo sapiens, MV4-11; IC50 class; MV-4-11 cells, RealTime-Glo after 44 hrs of treatment (TABLE 4); read-out: Cell viability classification
# Sequence of CK1α (P48729 whole entry): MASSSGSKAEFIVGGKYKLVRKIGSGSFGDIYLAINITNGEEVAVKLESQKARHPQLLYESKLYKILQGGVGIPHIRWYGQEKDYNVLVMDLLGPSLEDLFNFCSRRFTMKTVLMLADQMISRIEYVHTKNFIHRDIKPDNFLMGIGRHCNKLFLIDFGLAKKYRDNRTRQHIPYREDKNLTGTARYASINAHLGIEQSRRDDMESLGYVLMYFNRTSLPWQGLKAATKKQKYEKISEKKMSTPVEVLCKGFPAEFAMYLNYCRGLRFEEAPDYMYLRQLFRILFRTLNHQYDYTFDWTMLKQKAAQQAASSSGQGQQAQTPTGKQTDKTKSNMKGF
# Sequence of CK1α (Q96SW2 whole entry): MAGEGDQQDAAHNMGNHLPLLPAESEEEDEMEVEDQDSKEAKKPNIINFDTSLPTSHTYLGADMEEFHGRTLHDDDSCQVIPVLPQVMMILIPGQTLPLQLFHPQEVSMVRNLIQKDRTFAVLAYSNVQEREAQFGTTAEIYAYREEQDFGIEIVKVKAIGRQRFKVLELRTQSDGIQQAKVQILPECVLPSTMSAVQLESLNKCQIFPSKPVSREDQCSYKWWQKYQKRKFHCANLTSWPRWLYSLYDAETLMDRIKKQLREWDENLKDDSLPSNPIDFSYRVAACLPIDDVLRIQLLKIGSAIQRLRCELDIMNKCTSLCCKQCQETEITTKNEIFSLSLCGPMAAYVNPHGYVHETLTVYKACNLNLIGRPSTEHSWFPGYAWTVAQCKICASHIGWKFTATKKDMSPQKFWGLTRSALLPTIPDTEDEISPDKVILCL
# Sequence of CK1α (Q16531 whole entry partner): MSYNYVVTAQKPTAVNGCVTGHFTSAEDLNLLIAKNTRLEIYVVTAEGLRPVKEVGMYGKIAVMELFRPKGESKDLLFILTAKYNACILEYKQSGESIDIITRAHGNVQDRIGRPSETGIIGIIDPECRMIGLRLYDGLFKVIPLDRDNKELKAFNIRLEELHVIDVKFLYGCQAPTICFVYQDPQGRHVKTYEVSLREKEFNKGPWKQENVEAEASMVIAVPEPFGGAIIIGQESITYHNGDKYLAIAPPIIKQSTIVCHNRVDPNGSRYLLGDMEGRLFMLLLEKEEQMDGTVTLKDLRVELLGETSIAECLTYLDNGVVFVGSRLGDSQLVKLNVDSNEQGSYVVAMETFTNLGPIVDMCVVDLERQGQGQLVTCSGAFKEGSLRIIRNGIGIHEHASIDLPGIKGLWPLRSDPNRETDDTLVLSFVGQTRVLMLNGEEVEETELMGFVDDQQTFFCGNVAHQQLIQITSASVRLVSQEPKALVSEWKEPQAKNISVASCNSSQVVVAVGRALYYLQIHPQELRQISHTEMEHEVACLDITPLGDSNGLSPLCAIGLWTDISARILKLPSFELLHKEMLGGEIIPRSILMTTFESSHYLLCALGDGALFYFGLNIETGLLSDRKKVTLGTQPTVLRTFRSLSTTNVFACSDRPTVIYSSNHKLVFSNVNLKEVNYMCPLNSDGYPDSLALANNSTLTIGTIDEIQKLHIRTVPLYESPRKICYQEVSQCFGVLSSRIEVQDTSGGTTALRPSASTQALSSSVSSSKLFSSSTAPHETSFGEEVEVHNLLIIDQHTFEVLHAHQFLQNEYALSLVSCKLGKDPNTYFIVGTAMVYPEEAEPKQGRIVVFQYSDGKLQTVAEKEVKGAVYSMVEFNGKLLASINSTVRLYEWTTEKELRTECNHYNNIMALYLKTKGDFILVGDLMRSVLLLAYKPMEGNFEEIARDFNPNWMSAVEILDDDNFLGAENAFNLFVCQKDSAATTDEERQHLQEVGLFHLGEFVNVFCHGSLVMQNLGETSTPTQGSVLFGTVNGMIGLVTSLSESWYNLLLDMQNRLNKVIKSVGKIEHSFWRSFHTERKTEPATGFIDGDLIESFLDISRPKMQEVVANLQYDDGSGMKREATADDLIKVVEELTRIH
Dmax at 1 µM (CK1α),IC50 (MV-4-11 cells),SMILES
> 75%,< 0.1 µM,"O=C1CCC(N2Cc3c(cccc3N(CCC3CC3)[C@H]3C[C@H](c4nnc[nH]4)C3)C2=O)C(=O)N1 (stereo partly shown) [Compound 604, 3-{4-[(2-cyclopropylethyl)[(1s,3s)-3-(4H-1,2,4-triazol-3-yl)cyclobutyl]amino]-1-oxo-3H-isoindol-2-yl}piperidine-2,6-dione; formate]"
> 75%,< 0.1 µM,"O=C1CCC(N2Cc3c(cccc3N(CCC3CC3)[C@H]3CC[C@H](NCC4(F)CC4)CC3)C2=O)C(=O)N1 (stereo partly shown) [Compound 612, 3-{4-[(2-cyclopropylethyl)[(1r,4r)-4-{[(1-fluorocyclopropyl)methyl]amino}cyclohexyl]amino]-1-oxo-3H-isoindol-2-yl}piperidine-2,6-dione]"
> 75%,< 0.1 µM,"O=C1CCC(N2Cc3c(cccc3N(CCC3CC3)[C@H]3CC[C@H](NCC4(F)CCC4)CC3)C2=O)C(=O)N1 (stereo partly shown) [Compound 613, 3-{4-[(2-cyclopropylethyl)[(1r,4r)-4-{[(1-fluorocyclobutyl)methyl]amino}cyclohexyl]amino]-1-oxo-3H-isoindol-2-yl}piperidine-2,6-dione]"
> 75%,< 0.1 µM,"CS(=O)(=O)C1(CN[C@H]2CC[C@H](N(CCC3CC3)c3cccc4c3CN(C3CCC(=O)NC3=O)C4=O)CC2)CC1 (stereo partly shown) [Compound 615, 3-{4-[(2-cyclopropylethyl)[(1r,4r)-4-{[(1-methanesulfonylcyclopropyl)methyl]amino}cyclohexyl]amino]-1-oxo-3H-isoindol-2-yl}piperidine-2,6-dione; trifluoroacetate]"
> 75%,< 0.1 µM,"O=C1CCC(N2Cc3c(cccc3N(CCC3CC3)[C@H]3CC[C@H](NCC4(F)COC4)CC3)C2=O)C(=O)N1 (stereo partly shown) [Compound 616, 3-{4-[(2-cyclopropylethyl)[(1r,4r)-4-{[(3-fluorooxetan-3-yl)methyl]amino}cyclohexyl]amino]-1-oxo-3H-isoindol-2-yl}piperidine-2,6-dione; trifluoro acetate]"
50 to 75%,0.1 to 1 µM,"C[C@]1(N)CC[C@H](N(CCC2CC2)c2cccc3c2CN(C2CCC(=O)NC2=O)C3=O)CC1 (stereo partly shown) [Compound 634, 3-{4-[(2-cyclopropylethyl)[(1r,4r)-4-amino-4-methylcyclohexyl]amino]-1-oxo-3H-isoindol-2-yl}piperidine-2,6-dione]"
> 75%,< 0.1 µM,"C[C@]1(N)CC[C@@H](N(CCC2CC2)c2cccc3c2CN(C2CCC(=O)NC2=O)C3=O)CC1 (stereo partly shown) [Compound 635, 3-{4-[(2-cyclopropylethyl)[(1s,4s)-4-amino-4-methylcyclohexyl]amino]-1-oxo-3H-isoindol-2-yl}piperidine-2,6-dione]"
> 75%,0.1 to 1 µM,"O=C1CCC(N2Cc3c(cccc3N(CCCCC(F)(F)F)[C@H]3CC[C@H](NCCC(F)(F)F)CC3)C2=O)C(=O)N1 (stereo partly shown) [Compound 636, 3-(1-oxo-4-{[(1r,4r)-4-[(3,3,3-trifluoropropyl)amino]cyclohexyl](5,5,5-trifluoropentyl)amino}-3H-isoindol-2-yl)piperidine-2,6-dione; trifluoroacetate]"
